Tests used:
[1] = target: Casein kinase I isoform epsilon (Homo sapiens, UniProt P49674); experiment: Binding affinity to CSNK1E (unknown origin) assessed as change in melting temperature by SYPRO orange dye based DSF assay
[2] = target: T1, Tyrosine-protein kinase Mer (Homo sapiens) (UniProt Q12866); experiment: Binding affinity to MERTK (571 to 864 residue) (unknown origin) expressed in Escherichia coli Rosetta cells assessed as change in melting temperature by SYPRO orange dye based DSF assay
T1 sequence (whole entry): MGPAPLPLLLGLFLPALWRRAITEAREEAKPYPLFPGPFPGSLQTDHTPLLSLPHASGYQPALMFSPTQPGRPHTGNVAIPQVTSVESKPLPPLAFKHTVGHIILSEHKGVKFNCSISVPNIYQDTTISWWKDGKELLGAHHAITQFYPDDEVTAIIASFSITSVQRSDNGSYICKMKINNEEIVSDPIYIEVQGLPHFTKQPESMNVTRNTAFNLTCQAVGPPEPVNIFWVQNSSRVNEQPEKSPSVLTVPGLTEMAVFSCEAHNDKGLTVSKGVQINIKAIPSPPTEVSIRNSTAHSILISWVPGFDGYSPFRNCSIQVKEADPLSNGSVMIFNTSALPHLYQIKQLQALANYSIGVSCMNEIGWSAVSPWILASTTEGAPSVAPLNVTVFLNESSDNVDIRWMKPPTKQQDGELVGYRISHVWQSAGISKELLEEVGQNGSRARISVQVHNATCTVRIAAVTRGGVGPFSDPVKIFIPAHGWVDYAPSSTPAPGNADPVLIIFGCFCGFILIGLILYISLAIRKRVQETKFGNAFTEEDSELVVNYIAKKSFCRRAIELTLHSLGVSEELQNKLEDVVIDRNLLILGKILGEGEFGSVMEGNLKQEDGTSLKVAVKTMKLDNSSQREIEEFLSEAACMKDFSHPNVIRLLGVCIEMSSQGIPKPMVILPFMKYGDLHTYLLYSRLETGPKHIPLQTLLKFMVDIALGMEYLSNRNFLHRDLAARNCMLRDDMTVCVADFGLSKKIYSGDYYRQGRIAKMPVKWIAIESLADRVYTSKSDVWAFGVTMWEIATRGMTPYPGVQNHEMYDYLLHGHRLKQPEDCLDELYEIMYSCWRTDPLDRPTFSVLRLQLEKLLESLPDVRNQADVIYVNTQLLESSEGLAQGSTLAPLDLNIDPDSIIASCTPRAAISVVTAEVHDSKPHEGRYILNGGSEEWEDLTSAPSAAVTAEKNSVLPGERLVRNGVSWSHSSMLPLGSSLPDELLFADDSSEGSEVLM

Homo sapiens = organism: Homo sapiens; experiment: Binding affinity to MERTK-AXL mutant (unknown origin) expressed in Escherichia coli Rosetta cells assessed as change in melting temperature by SYPRO orange dye based DSF assay
[3] = target: T2, Peripheral plasma membrane protein CASK (Homo sapiens) (UniProt O14936)
T2 sequence (whole entry): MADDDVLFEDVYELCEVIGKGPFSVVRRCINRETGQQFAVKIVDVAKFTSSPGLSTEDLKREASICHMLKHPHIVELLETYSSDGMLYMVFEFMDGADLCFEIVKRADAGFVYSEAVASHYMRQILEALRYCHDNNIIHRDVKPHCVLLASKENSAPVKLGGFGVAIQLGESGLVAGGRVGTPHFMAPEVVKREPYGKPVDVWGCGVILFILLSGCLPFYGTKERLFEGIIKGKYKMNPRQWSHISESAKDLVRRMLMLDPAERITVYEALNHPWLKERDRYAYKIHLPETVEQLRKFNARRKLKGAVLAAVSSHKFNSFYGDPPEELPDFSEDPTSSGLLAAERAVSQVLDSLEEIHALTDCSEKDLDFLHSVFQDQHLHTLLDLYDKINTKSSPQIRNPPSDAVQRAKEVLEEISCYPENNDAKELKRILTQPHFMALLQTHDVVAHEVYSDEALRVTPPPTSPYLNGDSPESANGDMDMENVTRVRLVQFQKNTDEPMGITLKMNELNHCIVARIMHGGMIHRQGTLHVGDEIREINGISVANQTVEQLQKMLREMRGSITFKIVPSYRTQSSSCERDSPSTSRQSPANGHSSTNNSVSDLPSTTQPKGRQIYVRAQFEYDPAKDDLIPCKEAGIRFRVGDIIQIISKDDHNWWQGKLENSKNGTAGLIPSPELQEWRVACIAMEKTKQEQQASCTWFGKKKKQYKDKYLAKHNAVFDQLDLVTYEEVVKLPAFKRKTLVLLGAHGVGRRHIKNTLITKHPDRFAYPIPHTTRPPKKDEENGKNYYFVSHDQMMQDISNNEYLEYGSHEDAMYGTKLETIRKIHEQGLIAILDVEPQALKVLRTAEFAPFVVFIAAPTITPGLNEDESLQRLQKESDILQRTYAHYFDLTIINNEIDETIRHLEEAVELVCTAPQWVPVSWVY
Description: Binding affinity to recombinant N-terminal His-tagged CASK (1 to 337 residues) (unknown origin) expressed in Escherichia coli assessed as change in melting temperature by SYPRO orange dye based DSF assay

[4] = target: Tyrosine-protein kinase ABL1 (Homo sapiens, UniProt P00519);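 also: thermal shift of non-phosphorylated ABL1 protein measured by differential scanning fluorimetry with SYPRO Orange dye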
Sequence of Tyrosine-protein kinase ABL1 (P00519 whole entry): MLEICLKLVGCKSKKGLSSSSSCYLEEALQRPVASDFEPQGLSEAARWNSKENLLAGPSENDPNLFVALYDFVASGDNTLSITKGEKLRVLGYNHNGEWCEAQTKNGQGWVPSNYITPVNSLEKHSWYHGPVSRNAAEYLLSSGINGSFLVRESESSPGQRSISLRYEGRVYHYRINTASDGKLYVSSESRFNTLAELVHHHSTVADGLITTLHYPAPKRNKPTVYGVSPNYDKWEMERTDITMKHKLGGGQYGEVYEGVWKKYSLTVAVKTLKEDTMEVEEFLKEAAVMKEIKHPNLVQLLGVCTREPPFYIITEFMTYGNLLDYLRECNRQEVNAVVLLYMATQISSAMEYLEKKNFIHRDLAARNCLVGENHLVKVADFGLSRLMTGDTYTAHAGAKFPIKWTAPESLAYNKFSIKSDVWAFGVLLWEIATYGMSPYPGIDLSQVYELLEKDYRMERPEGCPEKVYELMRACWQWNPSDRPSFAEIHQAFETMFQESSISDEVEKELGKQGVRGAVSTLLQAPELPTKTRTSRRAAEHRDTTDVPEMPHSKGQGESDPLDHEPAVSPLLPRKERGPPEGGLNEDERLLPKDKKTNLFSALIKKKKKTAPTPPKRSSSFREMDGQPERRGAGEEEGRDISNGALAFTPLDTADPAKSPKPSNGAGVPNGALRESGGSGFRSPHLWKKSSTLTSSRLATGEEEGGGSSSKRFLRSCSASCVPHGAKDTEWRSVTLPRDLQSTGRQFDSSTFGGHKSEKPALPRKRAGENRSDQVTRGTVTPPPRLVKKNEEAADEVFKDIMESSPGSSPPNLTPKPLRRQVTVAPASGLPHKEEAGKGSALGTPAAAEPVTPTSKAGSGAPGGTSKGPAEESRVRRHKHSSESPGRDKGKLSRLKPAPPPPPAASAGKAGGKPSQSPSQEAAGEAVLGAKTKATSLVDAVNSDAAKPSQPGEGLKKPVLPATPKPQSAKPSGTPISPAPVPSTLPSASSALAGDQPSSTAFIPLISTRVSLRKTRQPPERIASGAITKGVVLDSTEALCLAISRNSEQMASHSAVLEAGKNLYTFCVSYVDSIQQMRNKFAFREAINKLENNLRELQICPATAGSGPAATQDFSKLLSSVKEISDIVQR
Description: Binding affinity to non-phosphorylated ABL1 (unknown origin) assessed as change in melting temperature by SYPRO orange dye based DSF assay

Sequence of Casein kinase I isoform epsilon (P49674 whole entry, looked up, canonical isoform): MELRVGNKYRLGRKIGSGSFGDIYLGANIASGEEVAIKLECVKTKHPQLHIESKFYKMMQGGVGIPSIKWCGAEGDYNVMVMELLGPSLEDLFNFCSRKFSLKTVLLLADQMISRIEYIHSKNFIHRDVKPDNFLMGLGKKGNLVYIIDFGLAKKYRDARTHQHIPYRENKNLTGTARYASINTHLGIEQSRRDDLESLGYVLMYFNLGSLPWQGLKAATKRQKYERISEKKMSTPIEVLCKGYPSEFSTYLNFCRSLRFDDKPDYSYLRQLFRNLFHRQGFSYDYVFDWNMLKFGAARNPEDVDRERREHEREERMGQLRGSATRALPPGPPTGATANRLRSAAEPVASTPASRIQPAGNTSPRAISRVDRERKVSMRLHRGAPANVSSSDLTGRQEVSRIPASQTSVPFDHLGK

| SMILES | deltaTm [1] [K] | deltaTm [2] [K] | deltaTm [3] [K] | deltaTm [4] [K] | deltaTm (Homo sapiens) [K] |
| --- | --- | --- | --- | --- | --- |
| O=C(NCCCN1CCCC1=O)c1cnc(NCc2ccccc2)nc1NC1CCCC1 | 4.3 | 0.5 | 0.8 | 4.5 | 0.4 |
| O=C(NCCCN1CCCC1=O)c1cnc(NCc2cc(Cl)ccc2Cl)nc1NC1CC1 | 4 | -0.4 | 1.4 | 4.9 | -0.2 |
| Cc1ccc(CNc2ncc(C(=O)NCCCN3CCOC3=O)c(NC3CCCC3)n2)c(Br)c1 | 0.1 | -0.2 | 6.1 | 5.8 | -0.1 |
| COc1ccc(OC)c(CNc2ncc(C(=O)NCCCN3CCCC3=O)c(NC3CCCC3)n2)c1 | 0.4 | -0.5 | 0.8 | 0.7 | -0.2 |
| Cc1ccc(CNc2ncc(C(=O)NCCCN3CCOC3=O)c(NC3CCCCC3)n2)c(Br)c1 | 1.5 | 0.7 | 6 | 6.2 | -0.1 |
| O=C(NCCCN1CCCC1=O)c1cnc(NCc2cc(Cl)ccc2Cl)nc1Nc1ccccc1 | 3.6 | -0.7 | 1.4 | 2.9 | -0.3 |
| CN[C@@H]1C[C@H]2O[C@@](C)([C@@H]1OC)n1c3ccccc3c3c4c(c5c6ccccc6n2c5c31)C(=O)NC4 | 2.3 | 4.8 | – | – | – |

Second part, led by results:

| deltaTm [1] [K] | deltaTm [2] [K] | deltaTm [3] [K] | deltaTm [4] [K] | SMILES | deltaTm (Homo sapiens) [K] |
| --- | --- | --- | --- | --- | --- |
| 4.4 | -0.5 | 4.8 | 7 | O=C(NCCCN1CCCC1=O)c1cnc(NCc2ccccc2Br)nc1NC1CCCC1 | -0.1 |
| 4.4 | -0.7 | – | 6.3 | O=C(NCCCN1CCCC1=O)c1cnc(NCc2cc(Br)ccc2Br)nc1NC1CCCC1 | 0.2 |
| 4.8 | -0.1 | 3.3 | 5.9 | O=C(NCCCN1CCCC1=O)c1cnc(NCc2ccccc2Cl)nc1NC1CCCC1 | -0.2 |
| 5 | -0.2 | 5.7 | 7.7 | O=C(NCCCN1CCCC1=O)c1cnc(NCc2cc(Cl)ccc2Cl)nc1NC1CCCCC1 | 0.1 |
| 2.2 | -0.1 | 1.2 | 6.8 | O=C(NCCCN1CCCC1=O)c1cnc(NCc2ccc(Br)cc2)nc1NC1CCCC1 | 0 |
| 6.5 | 0.6 | 3.8 | 6.9 | O=C(NCCCN1CCCC1=O)c1cnc(NCc2cccc(Br)c2)nc1NC1CCCC1 | 0.3 |
| 4.8 | -0.7 | – | 6 | O=C(NCCCN1CCCC1=O)c1cnc(NCc2cc(Cl)ccc2Cl)nc1NC1CCCC1 | -0.2 |
| 3.6 | -0.6 | 5.1 | 6 | O=C(NCCCN1CCOC1=O)c1cnc(NCc2cc(Br)ccc2Br)nc1NC1CCCC1 | 0.2 |
